# Results: PubChem BioAssay AID1996
# Settings: buffer; pH 7.4; 200.0 µM
row,SMILES,solubility kinetic [µg/mL]
1,O=S(=O)(Nc1cc(F)ccc1F)c1cccc2nonc12,> 46.7
2,Cc1cc(F)ccc1S(=O)(=O)N(CC(=O)N1CCOCC1)CC(=O)N1CCOCC1,> 66.5
3,CC(=O)Nc1ccc(C(=O)NCCCOC(C)C)cc1,39.6
4,CCCCOc1ccc(C(=O)N2CCNC(=O)C2)cc1,> 41.5
5,CSc1ccc(CN2CCSCC2)cc1,17
6,Cc1nc(N)c(Br)c(C)c1Br,6.2
7,Cc1ccc(CN2CCN(c3ncccn3)CC2)c(C)c1,19.4
8,Cc1cc2cc(OCc3ccccc3)ccc2n1C,< 0.5
9,Cc1csc(SCC(=O)Nc2ccc3[nH]c(=O)[nH]c3c2)n1,> 48.1
10,CC(=O)c1ccc(CC2SC(N)=NC2=O)cc1 (stereo unspecified),> 37.2
11,COc1ccc(Cl)cc1S(=O)(=O)NC(C)C(=O)NCc1ccccn1 (stereo unspecified),52.8
12,CC(=O)c1ccc(NC(=O)C(C)OC(=O)/C=C/c2ccco2)cc1 (stereo unspecified),21.7
13,COc1ccc(C2(c3ccc(OC)cc3)NC(=O)N(CC(=O)NC3CCS(=O)(=O)C3)C2=O)cc1 (stereo unspecified),> 73.1
14,CC(C)(C)c1ccc(/C=C(\C#N)C(=O)Nc2ccccn2)cc1,0.6
15,CN1CCCCCC1=Nc1ccc([N+](=O)[O-])cc1.Cl,> 42.6
16,CC(C)(C)N(Cc1cc2ccccc2[nH]c1=O)C(=O)c1ccco1,2.9
17,CCCCNC(=O)C1CC(=O)N(CCc2ccccc2)C1 (stereo unspecified),> 43.3
18,COc1ccc(C(=O)Nc2cccc3ccccc23)cc1,1.1
19,Cc1ccc(CCSc2ccc(F)cc2)cn1.O=C(O)C(=O)O,25.2
20,CC(=O)Nc1ccc(C(=O)OCc2ccccc2Br)cc1,< 0.7
21,FC(F)(F)c1cc(NC2CCCCC2)ccn1,28

row,SMILES,solubility kinetic [µg/mL]
1,Cc1ccc(NS(=O)(=O)N2CCOCC2)cc1,> 38.4
2,C=CC[N+]1(C)C2CCC1CC(O)C2.[Br-] (stereo unspecified),> 39.3
3,COc1cc2c(cc1OC)C(C(=O)NC(C)C)C1CCCCN1C2=O (stereo unspecified),> 52
4,O=[N+]([O-])c1ccc(C(O)C(CO)NC(=S)Nc2ccccc2)cc1 (stereo unspecified),> 52.1
5,COc1ccc(NC(=O)C2CC(=O)N=C(N)S2)cc1 (stereo unspecified),> 41.9
6,CC(C)(C)c1ccc(SCCc2ccncc2)cc1,6.5
7,CCc1ccc(C(CC(=O)O)N2Cc3ccccc3C2=O)cc1 (stereo unspecified),> 46.4
8,O=C(NCc1ccccn1)Nc1cccc(F)c1,35.9
9,CCOc1ncccc1C(=O)OCC(=O)Nc1cc(C(C)(C)C)ccc1OC,1.5
10,N=c1c2c3c(sc2ncn1N)CCCC3,> 33
11,CC1(C)CC(=O)N(c2ccc(Cl)cc2Cl)C(=O)C1,> 42.9
12,COc1ccc(C)cc1NC(=O)CN(C)C1CCCCC1,30.9
13,CCC(Oc1cccc(Cl)c1)C(=O)N1CCCN(C)CC1 (stereo unspecified),> 46.6
14,N=C(N)c1ccccc1,> 18
15,COc1ccc(S(=O)(=O)Nc2ccc(C)cn2)cc1,25.4
16,CCc1ccc(NC(=O)C(=O)NCc2ccccn2)cc1,16.1
17,Cc1ccccc1NC(=O)c1cccc(NC(=O)c2c(C(=O)O)cccc2[N+](=O)[O-])c1,56.1
18,CCN1C(=O)CSC1=Nc1ccccc1Cl,27.9
19,O=C(Cc1ccc(O)cc1)NCCNC(=S)NCc1ccccc1,50.3
20,NC(=O)COc1ccccc1C(=O)NC12CC3CC(CC(C3)C1)C2,14.2
21,NNC(=O)Cn1c(-c2ccccc2)cc2ccccc21,> 39.8

row,SMILES,solubility kinetic [µg/mL]
1,O/N=C\c1ccc2noc(-c3ccc(Cl)cc3)c2c1,< 0.3
2,Cc1ccc(N2C(=O)c3ccccc3C(C)(C)C2=O)cc1,12.8
3,Cc1ccc(NC(=S)NCC(C)CSc2ccc(Cl)cc2)cc1 (stereo unspecified),1.1
4,CCOC(=O)c1cc(NC(=O)c2cccs2)ccc1N1CCOCC1,14.8
5,CCC(=NC(C)c1ccccc1)c1c(O)[nH]c(=O)[nH]c1=O (stereo unspecified),> 43.1
6,COc1ccc(/C(C)=N/NC(=O)CNC(=O)c2cccnc2)cc1,> 49
7,CN(C)/C=C/C(=O)c1ccc2noc(-c3cccc(F)c3)c2c1,7.3
8,COC(=O)c1ccsc1-n1cc(C#N)c(=O)n(C)c1=O,> 43.7
9,Cc1c(-c2nc(-c3cccnc3)no2)cccc1[N+](=O)[O-],2
10,CC(C)[C@H](NC(=O)c1ccccc1)C(=O)OCC(=O)NCC1CCCO1 (stereo partly specified),> 54.4
11,Cc1ccc2c(CN(C)Cc3cccc(F)c3)cc(=O)oc2c1C,2.9
12,O=S(=O)(Nc1nc2ccccc2s1)c1ccc(Cl)nc1,> 48.9
13,Cc1c(Cl)cccc1NC(=O)c1ccco1,> 35.4
14,CCC(=O)N(C(=O)CC)N1CCN(c2ccncc2S(=O)(=O)N2CCCCC2)CC1,> 65.6
15,CCOC(=O)C(=CNc1ccc2c(c1)CCN2C(C)=O)C(=O)OCC,9.9
16,NC(=O)COc1ccc2oc(-c3ccccc3)cc(=O)c2c1,1.1
17,CNC(=S)N1CCn2cccc2C1c1ccc(F)cc1 (stereo unspecified),40.8
18,Cc1cc(C(=O)N2CCN(c3ccc([N+](=O)[O-])cc3)CC2)co1,> 47.3
19,CCOC(=O)C1CCN(C(=O)COC(=O)/C=C/c2ccc([N+](=O)[O-])cc2)CC1,18.7
